Results published in patent US20250320193A1, “OXOISOINDOLINYL SUBSTITUTED PIPERIDINEDIONE DERIVATIVE AND USE THEREOF” (GLUETACS THERAPEUTICS (SHANGHAI) CO., LTD., priority 2022, published 2025).

Each compound was assayed against human Cereblon WT GST-tagged protein (Homo sapiens (Human), UniProt Q96SW2) (assay: CRBN-binding affinity, HTRF (CEREBLON BINDING kit, CISBIO)). Settings: HTRF inhibitory activity.
Chain of human Cereblon WT GST-tagged protein (Q96SW2 whole entry): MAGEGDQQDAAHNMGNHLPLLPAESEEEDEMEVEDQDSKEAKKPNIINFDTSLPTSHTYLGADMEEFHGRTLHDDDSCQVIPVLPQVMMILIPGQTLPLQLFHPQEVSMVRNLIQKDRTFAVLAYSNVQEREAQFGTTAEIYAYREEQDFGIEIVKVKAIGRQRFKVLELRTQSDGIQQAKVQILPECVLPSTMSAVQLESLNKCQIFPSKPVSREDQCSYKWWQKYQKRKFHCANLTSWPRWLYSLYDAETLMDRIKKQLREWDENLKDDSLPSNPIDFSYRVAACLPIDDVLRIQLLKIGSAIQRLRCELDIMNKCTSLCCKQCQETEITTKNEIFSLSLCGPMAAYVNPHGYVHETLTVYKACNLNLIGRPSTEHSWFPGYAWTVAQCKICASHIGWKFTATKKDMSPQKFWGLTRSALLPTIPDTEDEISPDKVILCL
Protocol: I. Determination of CRBN-binding affinity of compounds of the present disclosure:
The CEREBLON BINDING kits (specification: 10,000 tests; product number: Catalog #64BDCRBNPEH; CISBIO company) was used to determine the CRBN binding ability of the compounds to be tested through a HTRF method (homogeneous time-resolved fluorescence). The specific methods are as follows: • 1. […] Then, 2.5 μL of human Cereblon WT GST-tagged protein solution was added to each well. Finally, 5 μL of the thoroughly mixed Thalidomide-Red reagent and GST Eu antibody working solution were added to each of the aforementioned wells. […] The blank control wells were sequentially added with 2.5 μL of diluent #9 (1X) solution, 2.5 μL of PROTAC binding buffer, and 5 μL of thoroughly mixed Thalidomide-Red reagent and GST Eu antibody working solution. • 4.
The corresponding CRBN binding inhibition rate was calculated using the following method: […]
OD 620 nmcompound is the absorbance value of each well of the compounds to be tested of the present disclosure at an emission wavelength of 620 nm. […] OD 620 nmcontrol is the absorbance value of the blank control well at an emission wavelength of 620 nm. […] OD 620 nmStd0 is the absorbance value of the solvent control well at an emission wavelength of 620 nm.
For `O=C1CCC(N2Cc3cc(C(=O)N4C[C@H]5C[C@@H]4CN5C(c4ccccc4)c4ccccc4)ccc3C2=O)C(=O)N1` (stereo partly drawn) [GT-05990, 3-(5-((1R,4R)-5-benzhydryl-2,5-diazabicyclo[2.2.1]heptane-2-carbonyl)-1-oxoisoindolin-2-yl)piperidine-2,6-dione], the IC50 was less than 500 nM. For `O=C1CCC(N2Cc3cc(C(=O)N4C[C@H]5C[C@@H]4CN5C(c4ccccc4)c4ccccc4)cc(F)c3C2=O)C(=O)N1` (stereo partly drawn) [GT-05991, 3-(5-((1R,4R)-5-benzhydryl-2,5-diazabicyclo[2.2.1]heptane-2-carbonyl)-7-fluoro-1-oxoisoindolin-2-yl)piperidine-2,6-dione], the IC50 was less than 500 nM. `O=C1CCC(N2Cc3cc(CN4CCC5(CC4)CCN(C(c4ccccc4)c4ccccc4)CC5)ccc3C2=O)C(=O)N1` (stereo not drawn) [GT-06002, 3-(5-((9-benzhydryl-3,9-diazaspiro[5.5]undecan-3-yl)methyl)-1-oxoisoindolin-2-yl)piperidine-2,6-dione] gave an IC50 of 500 to 1000 nM. For `O=C1CCC(N2Cc3c(ccc(CN4CCC5(CC4)CCN(C(c4ccccc4)c4ccccc4)CC5)c3F)C2=O)C(=O)N1` (stereo not drawn) [GT-06024, 3-(5-((9-benzhydryl-3,9-diazaspiro[5.5]undecan-3-yl)methyl)-4-fluoro-1-oxoisoindolin-2-yl)piperidine-2,6-dione], the IC50 was 500 to 1000 nM. With `O=C1CCC(N2Cc3cc(CN4CCC5(CC4)CCN(C(c4ccccc4)c4ccccc4)CC5)c(F)cc3C2=O)C(=O)N1` (stereo not drawn) [GT-06025, 3-(5-((9-benzhydryl-3,9-diazaspiro[5.5]undecan-3-yl)methyl)-6-fluoro-1-oxoisoindolin-2-yl)piperidine-2,6-dione] the IC50 was 500 to 1000 nM. For `O=C1CCC(N2Cc3cc(CN4CCC5(CC4)CCN(C(c4ccccc4)c4ccccc4)CC5)cc(F)c3C2=O)C(=O)N1` (stereo not drawn) [GT-06026, 3-(5-((9-benzhydryl-3,9-diazaspiro[5.5]undecan-3-yl)methyl)-7-fluoro-1-oxoisoindolin-2-yl)piperidine-2,6-dione], the IC50 was 500 to 1000 nM. `O=C1CCC(N2Cc3cc(C(=O)N4C5CCC4CN(C(c4ccccc4)c4ccccc4)C5)cc(F)c3C2=O)C(=O)N1` (stereo not drawn) [GT-06055, 3-(5-(3-benzhydryl-3,8-diazabicyclo[3.2.1]octane-8-carbonyl)-7-fluoro-1-oxoisoindolin-2-yl)piperidine-2,6-dione] gave an IC50 of less than 500 nM. Compound `O=C1CCC(N2Cc3cc(C(=O)N4CC5CCC4CN5C(c4ccccc4)c4ccccc4)ccc3C2=O)C(=O)N1` (stereo not drawn) [GT-06056, 3-(5-(5-benzhydryl-2,5-diazabicyclo[2.2.2]octane-2-carbonyl)-1-oxoisoindolin-2-yl)piperidine-2,6-dione] has an IC50 of less than 500 nM. In the case of `O=C1CCC(N2Cc3cc(C(=O)N4CC5CCC4CN5C(c4ccccc4)c4ccccc4)cc(F)c3C2=O)C(=O)N1` (stereo not drawn) [GT-06057, 3-(5-(5-benzhydryl-2,5-diazabicyclo[2.2.2]octane-2-carbonyl)-7-fluoro-1-oxoisoindolin-2-yl)piperidine-2,6-dione], the IC50 is reported as less than 500 nM. `CC1CN(C(=O)c2ccc3c(c2)CN(C2CCC(=O)NC2=O)C3=O)CC(C)N1C(c1ccccc1)c1ccccc1` (stereo not drawn) [GT-06059, 3-(5-(4-benzhydryl-3,5-dimethylpiperazine-1-carbonyl)-1-oxoisoindolin-2-yl)piperidine-2,6-dione] gave an IC50 of less than 500 nM. For `CC1CN(C(=O)c2cc(F)c3c(c2)CN(C2CCC(=O)NC2=O)C3=O)CC(C)N1C(c1ccccc1)c1ccccc1` (stereo not drawn) [GT-06060, 3-(5-(4-benzhydryl-3,5-dimethylpiperazine-1-carbonyl)-7-fluoro-1-oxoisoindolin-2-yl)piperidine-2,6-dione], the IC50 was 500 to 1000 nM. `CC1(C)CN(C(=O)c2cc(F)c3c(c2)CN(C2CCC(=O)NC2=O)C3=O)CCN1C(c1ccccc1)c1ccccc1` (stereo not drawn) [GT-06062, 3-(5-(4-benzhydryl-3,3-dimethylpiperazine-1-carbonyl)-7-fluoro-1-oxoisoindolin-2-yl)piperidine-2,6-dione] was tested, and the IC50 was 500 to 1000 nM. Work on `O=C1CCC(N2Cc3cc(C(=O)N4CCN(C5c6cc(Cl)ccc6-c6ccc(Cl)cc65)CC4)ccc3C2=O)C(=O)N1` (stereo not drawn) [GT-06069, 3-(5-(4-(2,7-dichloro-9H-fluoren-9-yl)piperazine-1-carbonyl)-1-oxoisoindolin-2-yl)piperidine-2,6-dione] yielded an IC50 of 500 to 1000 nM. Compound `O=C1CCC(N2Cc3c(ccc(C4=CCN(C(c5ccccc5)c5ccccc5)CC4)c3F)C2=O)C(=O)N1` (stereo not drawn) [GT-06072, 3-(5-(1-benzhydryl-1,2,3,6-tetrahydropyridin-4-yl)-4-fluoro-1-oxoisoindolin-2-yl)piperidine-2,6-dione] has an IC50 of less than 500 nM. In the case of `O=C1CCC(N2Cc3cc(CN4CCN(C(c5ccccc5)c5ccccc5)CC4C(F)(F)F)cc(F)c3C2=O)C(=O)N1` (stereo not drawn) [GT-06098, 3-(5-((4-benzhydryl-2-(trifluoromethyl)piperazin-1-yl)methyl)-7-fluoro-1-oxoisoindolin-2-yl)piperidine-2,6-dione], the IC50 is reported as less than 500 nM. `O=C1CCC(N2Cc3cc(CN4CCN(C(c5ccccc5)c5cccnc5)CC4)cc(F)c3C2=O)C(=O)N1` (stereo not drawn) [GT-06111, 3-(7-fluoro-1-oxo-5-((4-(phenyl(pyridin-3-yl)methyl)piperazin-1-yl)methyl)isoindolin-2-yl)piperidine-2,6-dione] showed an IC50 of less than 500 nM. With `O=C1CCC(N2Cc3c(CN4CCN(C(c5ccccc5)c5cccnc5)CC4)cccc3C2=O)C(=O)N1` (stereo not drawn) [GT-06113, 3-(1-oxo-4-((4-(phenyl(pyridin-3-yl)methyl)piperazin-1-yl)methyl)isoindolin-2-yl)piperidine-2,6-dione] the IC50 was 500 to 1000 nM. Compound `O=C1CCC(N2Cc3ccc(CN4CCN(C(c5cccc(F)c5)c5cccc(F)c5)CC4)cc3C2=O)C(=O)N1` (stereo not drawn) [GT-06116, 3-(6-((4-(bis(3-fluorophenyl)methyl)piperazin-1-yl)methyl)-1-oxoisoindolin-2-yl)piperidine-2,6-dione] has an IC50 of 500 to 1000 nM. `O=C1CCC(N2Cc3cc(CN4CCN(C(c5ccccc5)c5ccncc5)CC4)cc(F)c3C2=O)C(=O)N1` (stereo not drawn) [GT-06135, 3-(7-fluoro-1-oxo-5-((4-(phenyl(pyridin-4-yl)methyl)piperazin-1-yl)methyl)isoindolin-2-yl)piperidine-2,6-dione] gave an IC50 of less than 500 nM. Compound `O=C1CCC(N2Cc3c(ccc(C4CCN(C(c5ccccc5)c5ccccc5)CC4)c3F)C2=O)C(=O)N1` (stereo not drawn) [GT-06136, 3-(5-(1-benzhydrylpiperidin-4-yl)-4-fluoro-1-oxoisoindolin-2-yl)piperidine-2,6-dione] has an IC50 of less than 500 nM. With `O=C1CCC(N2Cc3cc(C(=O)N4CCN(C(c5ccccc5)c5ccncc5)CC4)ccc3C2=O)C(=O)N1` (stereo not drawn) [GT-06144, 3-(1-oxo-5-(4-(phenyl(pyridin-4-yl)methyl)piperazine-1-carbonyl)isoindolin-2-yl)piperidine-2,6-dione] the IC50 was 500 to 1000 nM. With `O=C1CCC(N2Cc3ccc(C(=O)N4CCN(C(c5cccc(F)c5)c5cccc(F)c5)CC4)cc3C2=O)C(=O)N1` (stereo not drawn) [GT-06149, 3-(6-(4-(bis(3-fluorophenyl)methyl)piperazine-1-carbonyl)-1-oxoisoindolin-2-yl)piperidine-2,6-dione] the IC50 was 500 to 1000 nM. For `O=C1CCC(N2Cc3cccc(C(=O)N4CCN(C(c5cccc(F)c5)c5cccc(F)c5)CC4)c3C2=O)C(=O)N1` (stereo not drawn) [GT-06150, 3-(7-(4-(bis(3-fluorophenyl)methyl)piperazine-1-carbonyl)-1-oxoisoindolin-2-yl)piperidine-2,6-dione], the IC50 was 500 to 1000 nM. `O=C1CCC(N2Cc3cc(C4CCN(C(c5ccccc5)c5ccccc5)CC4)cc(F)c3C2=O)C(=O)N1` (stereo not drawn) [GT-06198, 3-(5-(1-benzhydrylpiperidin-4-yl)-7-fluoro-1-oxoisoindolin-2-yl)piperidine-2,6-dione] was tested, and the IC50 was less than 500 nM.
